Usually IC50 stands for the concentration at which inhibition is half-maximal. A high value points to weaker potency in that assay. The term microsomal CLint denotes the rate of metabolic loss divided by the concentration.

Results on three molecules are retold here after ChEMBL document CHEMBL6087392, “Discovery of ZG-2305, an Orally Bioavailable Factor Inhibiting HIF Inhibitor for the Treatment of Obesity and Fatty Liver Disease” (J Med Chem, 2025).

Data set [1] is described as follows: Inhibition of FIH (unknown origin). Also on record: species or system Homo sapiens.
The target of data set [2] is Cytochrome P450 2D6 (Homo sapiens, UniProt P10635). The data set can be described thus: Inhibition of CYP2D6 in human liver microsomes using bufuralol as substrate preincubated for 5 mins followed by NADPH addition and measured after 10 mins by LC-MS/MS analysis. The data set is classed as ADME, Microsome. (Liver microsomes are a subcellular fraction often used to study metabolism.)
Cytochrome P450 2D6, sequence (P10635 whole entry): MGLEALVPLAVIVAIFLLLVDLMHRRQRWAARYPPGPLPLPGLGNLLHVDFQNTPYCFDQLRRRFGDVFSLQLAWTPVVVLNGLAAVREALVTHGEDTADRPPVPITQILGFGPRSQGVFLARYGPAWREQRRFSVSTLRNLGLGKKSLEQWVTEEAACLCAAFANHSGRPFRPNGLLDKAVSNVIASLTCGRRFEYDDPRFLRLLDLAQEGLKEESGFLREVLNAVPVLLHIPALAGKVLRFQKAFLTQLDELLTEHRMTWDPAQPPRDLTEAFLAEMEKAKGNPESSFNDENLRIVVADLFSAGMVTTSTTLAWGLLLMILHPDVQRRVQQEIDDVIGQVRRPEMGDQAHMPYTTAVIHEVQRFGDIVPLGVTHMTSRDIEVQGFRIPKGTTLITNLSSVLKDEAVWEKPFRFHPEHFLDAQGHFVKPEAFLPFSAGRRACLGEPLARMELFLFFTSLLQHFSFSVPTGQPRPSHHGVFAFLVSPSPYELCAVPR

Data set [3] has as its target Cytochrome P450 3A4 (Homo sapiens, UniProt P08684). The data set can be described thus: Inhibition of CYP3A4 in human liver microsomes using testosterone as substrate preincubated for 5 mins followed by NADPH addition and measured after 5 mins by LC-MS/MS analysis. Format: ADME, Microsome.
The target in data set [4] is Voltage-gated inwardly rectifying potassium channel KCNH2 (Homo sapiens, UniProt Q12809). The data set can be described thus: Inhibition of human ERG at 30 uM. The data set is classed as toxicity.
Voltage-gated inwardly rectifying potassium channel KCNH2, sequence (Q12809 whole entry): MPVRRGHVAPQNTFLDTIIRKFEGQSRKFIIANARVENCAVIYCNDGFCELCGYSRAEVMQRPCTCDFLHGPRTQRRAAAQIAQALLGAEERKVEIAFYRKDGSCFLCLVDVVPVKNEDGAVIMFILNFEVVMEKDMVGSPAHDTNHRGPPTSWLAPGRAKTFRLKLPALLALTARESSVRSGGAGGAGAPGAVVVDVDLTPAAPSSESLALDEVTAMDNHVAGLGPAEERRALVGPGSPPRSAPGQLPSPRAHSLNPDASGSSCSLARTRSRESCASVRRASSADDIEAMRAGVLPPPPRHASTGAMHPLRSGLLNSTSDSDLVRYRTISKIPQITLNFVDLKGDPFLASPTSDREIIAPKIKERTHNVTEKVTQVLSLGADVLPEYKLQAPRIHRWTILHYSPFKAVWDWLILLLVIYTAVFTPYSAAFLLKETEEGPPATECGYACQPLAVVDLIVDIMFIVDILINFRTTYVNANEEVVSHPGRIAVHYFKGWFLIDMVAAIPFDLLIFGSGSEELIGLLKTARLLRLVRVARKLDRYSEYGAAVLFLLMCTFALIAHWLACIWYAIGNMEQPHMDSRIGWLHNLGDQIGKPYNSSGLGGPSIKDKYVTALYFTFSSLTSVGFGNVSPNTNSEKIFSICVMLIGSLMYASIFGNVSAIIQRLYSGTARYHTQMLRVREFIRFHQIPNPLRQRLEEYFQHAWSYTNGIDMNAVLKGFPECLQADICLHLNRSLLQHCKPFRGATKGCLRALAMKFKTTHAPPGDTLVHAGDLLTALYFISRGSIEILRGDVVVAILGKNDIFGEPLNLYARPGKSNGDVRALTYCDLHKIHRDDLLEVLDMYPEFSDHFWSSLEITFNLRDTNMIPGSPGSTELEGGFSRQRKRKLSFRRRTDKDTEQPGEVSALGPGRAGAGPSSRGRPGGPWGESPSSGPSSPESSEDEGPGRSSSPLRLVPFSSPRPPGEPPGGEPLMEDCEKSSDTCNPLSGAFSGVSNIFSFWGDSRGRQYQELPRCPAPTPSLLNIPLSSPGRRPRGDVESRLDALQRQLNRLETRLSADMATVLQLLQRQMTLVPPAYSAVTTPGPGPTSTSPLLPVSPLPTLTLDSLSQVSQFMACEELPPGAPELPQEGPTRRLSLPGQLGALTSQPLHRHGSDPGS
Data set [5] deals with Cytochrome P450 2C9 (Homo sapiens, UniProt P11712). The data set can be described thus: Inhibition of CYP2C9 in human liver microsomes using diclofenac as substrate preincubated for 5 mins followed by NADPH addition and measured after 10 mins by LC-MS/MS analysis. Format: ADME, Microsome.
Cytochrome P450 2C9, sequence (P11712 whole entry): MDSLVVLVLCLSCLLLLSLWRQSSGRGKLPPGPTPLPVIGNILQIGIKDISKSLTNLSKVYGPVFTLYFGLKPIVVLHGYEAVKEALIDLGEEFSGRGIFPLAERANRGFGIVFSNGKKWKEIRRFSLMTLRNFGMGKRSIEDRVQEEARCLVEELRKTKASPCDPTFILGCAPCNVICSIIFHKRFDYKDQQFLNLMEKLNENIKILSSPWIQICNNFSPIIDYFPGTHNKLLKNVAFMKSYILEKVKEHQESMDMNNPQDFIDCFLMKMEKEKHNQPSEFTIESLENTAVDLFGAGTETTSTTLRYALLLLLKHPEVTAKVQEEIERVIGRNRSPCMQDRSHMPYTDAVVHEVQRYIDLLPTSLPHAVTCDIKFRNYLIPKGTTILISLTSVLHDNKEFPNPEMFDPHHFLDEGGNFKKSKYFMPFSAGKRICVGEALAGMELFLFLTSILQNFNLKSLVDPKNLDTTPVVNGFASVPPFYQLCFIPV
Data set [6] deals with T1, Cytochrome P450 1A2 (Homo sapiens, UniProt P05177).
T1 sequence (P05177 whole entry): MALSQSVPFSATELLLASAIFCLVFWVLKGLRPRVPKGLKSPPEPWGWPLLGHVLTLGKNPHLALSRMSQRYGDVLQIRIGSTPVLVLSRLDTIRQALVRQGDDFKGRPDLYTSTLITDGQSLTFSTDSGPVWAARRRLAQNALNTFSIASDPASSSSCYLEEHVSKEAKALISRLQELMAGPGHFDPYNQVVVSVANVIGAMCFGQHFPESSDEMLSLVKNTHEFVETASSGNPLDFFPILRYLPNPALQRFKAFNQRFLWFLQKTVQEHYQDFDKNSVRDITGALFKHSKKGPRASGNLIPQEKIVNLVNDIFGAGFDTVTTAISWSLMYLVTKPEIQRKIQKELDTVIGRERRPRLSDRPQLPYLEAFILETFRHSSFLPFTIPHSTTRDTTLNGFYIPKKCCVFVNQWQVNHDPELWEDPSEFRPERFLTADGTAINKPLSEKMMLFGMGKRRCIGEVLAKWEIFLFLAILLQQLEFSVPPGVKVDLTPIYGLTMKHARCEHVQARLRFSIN
The data set can be described thus: Inhibition of CYP1A2 in human liver microsomes using phenacetin as substrate preincubated for 5 mins followed by NADPH addition and measured after 10 mins by LC-MS/MS analysis. Format: ADME, Microsome.

For data set [7], the target named is Cytochrome P450 2C19 (Homo sapiens, UniProt P33261). The data set can be described thus: Inhibition of CYP2C19 in human liver microsomes using S-mephenytoin as substrate preincubated for 5 mins followed by NADPH addition and measured after 45 mins by LC-MS/MS analysis. Format: ADME, Microsome.
Cytochrome P450 2C19, sequence (P33261 whole entry): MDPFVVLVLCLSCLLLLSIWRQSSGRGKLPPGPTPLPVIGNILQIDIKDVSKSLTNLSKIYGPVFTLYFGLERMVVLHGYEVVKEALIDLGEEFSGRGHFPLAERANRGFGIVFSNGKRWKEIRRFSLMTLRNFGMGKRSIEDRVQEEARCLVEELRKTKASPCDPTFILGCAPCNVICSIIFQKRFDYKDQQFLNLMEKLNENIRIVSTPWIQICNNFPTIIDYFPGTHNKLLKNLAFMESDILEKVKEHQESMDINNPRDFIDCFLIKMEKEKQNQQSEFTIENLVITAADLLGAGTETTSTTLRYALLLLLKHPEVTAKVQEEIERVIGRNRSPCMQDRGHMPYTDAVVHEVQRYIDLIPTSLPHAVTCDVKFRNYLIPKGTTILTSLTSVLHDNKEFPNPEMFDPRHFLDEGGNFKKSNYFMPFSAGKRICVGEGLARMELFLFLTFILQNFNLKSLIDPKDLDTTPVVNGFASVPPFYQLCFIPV
A short description of data set [8]: Metabolic stability in rat liver microsomes assessed as intrinsic clearance in presence of NADPH by LC-MS/MS analysis.

Bounds are passed on as bounds.

Cytochrome P450 3A4, sequence (P08684 whole entry): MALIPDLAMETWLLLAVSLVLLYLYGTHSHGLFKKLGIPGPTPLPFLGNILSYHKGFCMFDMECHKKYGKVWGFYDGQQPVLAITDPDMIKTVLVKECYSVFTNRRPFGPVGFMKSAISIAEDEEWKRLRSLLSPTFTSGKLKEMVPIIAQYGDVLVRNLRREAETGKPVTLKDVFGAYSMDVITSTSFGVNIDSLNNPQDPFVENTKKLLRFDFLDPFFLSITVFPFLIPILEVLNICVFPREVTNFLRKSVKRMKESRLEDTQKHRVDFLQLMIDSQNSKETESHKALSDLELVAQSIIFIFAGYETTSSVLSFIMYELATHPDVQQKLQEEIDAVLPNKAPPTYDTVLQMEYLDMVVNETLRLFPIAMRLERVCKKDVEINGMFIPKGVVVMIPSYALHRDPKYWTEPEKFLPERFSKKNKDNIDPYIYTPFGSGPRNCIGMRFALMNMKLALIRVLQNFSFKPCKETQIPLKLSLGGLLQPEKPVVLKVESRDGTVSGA

For `O=C(O)Cc1cs/c(=N\C(=O)C2CCN(S(=O)(=O)Cc3ccccc3)C2)n1O` (stereo not drawn), in data set [1], the 50% inhibitory concentration (IC50) was found to be 0.28 µM.

On to `O=C(O)CNC(=O)c1ncc(-c2cc(-c3cc(Cl)cc(Cl)c3)no2)cc1O`, for which the IC50 in data set [2], in data set [3], in data set [5], in data set [6] and in data set [7] was more than 30 µM in each case. The “inhibition (INH)” value in data set [4] is listed as “Not_active”.

For `C[C@]12CC[C@H]3[C@@H](CCC4=CC(=O)CC[C@@]43C)[C@@H]1CC[C@@H]2O` [TESTOSTERONE], in data set [8], the intrinsic clearance (microsomal CLint) worked out at 1200 µL/min/mg.
